Results: publication PMC2931804 (Clinical cancer research : an official journal of the …, 2010)
Read-outs that look alike come from different tables or passages of the source.

[1] = DL3 800 mg twice daily × 3 + sLV5FU2, Any cycle, n = 3
[2] = DL3 1,000 mg once daily × 3 + sLV5FU2, 1st cycle, n = 3
[3] = DL3 1,000 mg once daily × 3 + sLV5FU2, Any cycle, n = 3
[4] = DL4 1,200 mg once daily × 3 + sLV5FU2, 1st cycle, n = 3
[5] = DL4 1,200 mg once daily × 3 + sLV5FU2, Any cycle, n = 3
[6] = DL5 1,400 mg once daily × 3 + sLV5FU2, 1st cycle, n = 3
[7] = DL5 1,400 mg once daily × 3 + sLV5FU2, Any cycle, n = 3
[8] = DL6 1,700 mg once daily × 3 + sLV5FU2, 1st cycle, n = 6
[9] = DL6 1,700 mg once daily × 3 + sLV5FU2, Any cycle, n = 6
[10] = DL7 2,000 mg once daily × 3 + sLV5FU2, 1st cycle, n = 3
[11] = DL7 2,000 mg once daily × 3 + sLV5FU2, Any cycle, n = 3

Structure (SMILES): O=C(CCCCCCC(=O)Nc1ccccc1)NO [vorinostat, suberoylanilide hydroxamic acid]
- Nausea, treatment-related, patients (G2/G3/G4) [1]: 0/0/0
- Neutropenia, treatment-related, patients (G2/G3/G4) [1]: 2/0/0
- Thrombocytopenia, treatment-related, patients (G2/G3/G4) [1]: 2/1/0
- VTE, treatment-related, patients (G2/G3/G4) [1]: 0/0/1
- Vomiting, treatment-related, patients (G2/G3/G4) [1]: 0/0/0
- Anemia, treatment-related, patients (G2/G3/G4) [2]: 1/0/0
- Anorexia, treatment-related, patients (G2/G3/G4) [2]: 0/0/0
- DVT/PE, treatment-related, patients (G2/G3/G4) [2]: 0/0/0
- Dehydration, treatment-related, patients (G2/G3/G4) [2]: 0/0/0
- Diarrhea, treatment-related, patients (G2/G3/G4) [2]: 0/0/0
- Fatigue, treatment-related, patients (G2/G3/G4) [2]: 1/0/0
- GI bleed, treatment-related, patients (G2/G3/G4) [2]: 0/0/0
- Hand and Foot, treatment-related, patients (G2/G3/G4) [2]: 0/0/0
- Infection, treatment-related, patients (G2/G3/G4) [2]: 0/0/0
- Mucositis, treatment-related, patients (G2/G3/G4) [2]: 0/0/0
- Nausea, treatment-related, patients (G2/G3/G4) [2]: 0/0/0
- Neutropenia, treatment-related, patients (G2/G3/G4) [2]: 0/0/0
- Thrombocytopenia, treatment-related, patients (G2/G3/G4) [2]: 0/0/0
- Vomiting, treatment-related, patients (G2/G3/G4) [2]: 0/0/0
- Weight Loss, treatment-related, patients (G2/G3/G4) [2]: 0/0/0
- Anemia, treatment-related, patients (G2/G3/G4) [3]: 1/0/0
- Anorexia, treatment-related, patients (G2/G3/G4) [3]: 0/0/0
- DVT/PE, treatment-related, patients (G2/G3/G4) [3]: 0/0/0
- Dehydration, treatment-related, patients (G2/G3/G4) [3]: 0/0/0
- Diarrhea, treatment-related, patients (G2/G3/G4) [3]: 0/0/0
- Fatigue, treatment-related, patients (G2/G3/G4) [3]: 2/0/0
- GI bleed, treatment-related, patients (G2/G3/G4) [3]: 0/0/0
- Hand and Foot, treatment-related, patients (G2/G3/G4) [3]: 0/0/0
- Infection, treatment-related, patients (G2/G3/G4) [3]: 0/0/0
- Mucositis, treatment-related, patients (G2/G3/G4) [3]: 1/0/0
- Nausea, treatment-related, patients (G2/G3/G4) [3]: 0/0/0
- Neutropenia, treatment-related, patients (G2/G3/G4) [3]: 0/0/0
- Thrombocytopenia, treatment-related, patients (G2/G3/G4) [3]: 0/0/0
- Vomiting, treatment-related, patients (G2/G3/G4) [3]: 0/0/0
- Weight Loss, treatment-related, patients (G2/G3/G4) [3]: 0/0/0
- Anemia, treatment-related, patients (G2/G3/G4) [4]: 0/0/0
- Anorexia, treatment-related, patients (G2/G3/G4) [4]: 0/0/0
- DVT/PE, treatment-related, patients (G2/G3/G4) [4]: 0/0/0
- Dehydration, treatment-related, patients (G2/G3/G4) [4]: 0/0/0
- Diarrhea, treatment-related, patients (G2/G3/G4) [4]: 0/0/0
- Fatigue, treatment-related, patients (G2/G3/G4) [4]: 2/0/0
- GI bleed, treatment-related, patients (G2/G3/G4) [4]: 0/0/0
- Hand and Foot, treatment-related, patients (G2/G3/G4) [4]: 0/0/0
- Infection, treatment-related, patients (G2/G3/G4) [4]: 0/0/0
- Mucositis, treatment-related, patients (G2/G3/G4) [4]: 0/0/0
- Nausea, treatment-related, patients (G2/G3/G4) [4]: 0/0/0
- Neutropenia, treatment-related, patients (G2/G3/G4) [4]: 0/0/0
- Thrombocytopenia, treatment-related, patients (G2/G3/G4) [4]: 0/0/0
- Vomiting, treatment-related, patients (G2/G3/G4) [4]: 1/0/0
- Weight Loss, treatment-related, patients (G2/G3/G4) [4]: 0/0/0
- Anemia, treatment-related, patients (G2/G3/G4) [5]: 0/0/0
- Anorexia, treatment-related, patients (G2/G3/G4) [5]: 1/0/0
- DVT/PE, treatment-related, patients (G2/G3/G4) [5]: 0/1/0
- Dehydration, treatment-related, patients (G2/G3/G4) [5]: 0/0/0
- Diarrhea, treatment-related, patients (G2/G3/G4) [5]: 0/1/0
- Fatigue, treatment-related, patients (G2/G3/G4) [5]: 2/0/0
- GI bleed, treatment-related, patients (G2/G3/G4) [5]: 0/0/0
- Hand and Foot, treatment-related, patients (G2/G3/G4) [5]: 0/0/0
- Infection, treatment-related, patients (G2/G3/G4) [5]: 0/0/0
- Mucositis, treatment-related, patients (G2/G3/G4) [5]: 0/0/0
- Nausea, treatment-related, patients (G2/G3/G4) [5]: 1/0/0
- Neutropenia, treatment-related, patients (G2/G3/G4) [5]: 0/0/0
- Thrombocytopenia, treatment-related, patients (G2/G3/G4) [5]: 0/0/0
- Vomiting, treatment-related, patients (G2/G3/G4) [5]: 2/0/0
- Weight Loss, treatment-related, patients (G2/G3/G4) [5]: 1/0/0
- Anemia, treatment-related, patients (G2/G3/G4) [6]: 0/0/0
- Anorexia, treatment-related, patients (G2/G3/G4) [6]: 0/0/0
- DVT/PE, treatment-related, patients (G2/G3/G4) [6]: 0/0/0
- Dehydration, treatment-related, patients (G2/G3/G4) [6]: 0/0/0
- Diarrhea, treatment-related, patients (G2/G3/G4) [6]: 0/0/0
- Fatigue, treatment-related, patients (G2/G3/G4) [6]: 0/0/0
- GI bleed, treatment-related, patients (G2/G3/G4) [6]: 0/0/0
- Hand and Foot, treatment-related, patients (G2/G3/G4) [6]: 0/0/0
- Infection, treatment-related, patients (G2/G3/G4) [6]: 0/0/0
- Mucositis, treatment-related, patients (G2/G3/G4) [6]: 0/0/0
- Nausea, treatment-related, patients (G2/G3/G4) [6]: 0/0/0
- Neutropenia, treatment-related, patients (G2/G3/G4) [6]: 1/0/0
- Thrombocytopenia, treatment-related, patients (G2/G3/G4) [6]: 0/0/0
- Vomiting, treatment-related, patients (G2/G3/G4) [6]: 0/0/0
- Weight Loss, treatment-related, patients (G2/G3/G4) [6]: 0/0/0
- Anemia, treatment-related, patients (G2/G3/G4) [7]: 1/0/0
- Anorexia, treatment-related, patients (G2/G3/G4) [7]: 1/0/0
- DVT/PE, treatment-related, patients (G2/G3/G4) [7]: 0/0/0
- Dehydration, treatment-related, patients (G2/G3/G4) [7]: 0/0/0
- Diarrhea, treatment-related, patients (G2/G3/G4) [7]: 2/0/0
- Fatigue, treatment-related, patients (G2/G3/G4) [7]: 2/0/0
- GI bleed, treatment-related, patients (G2/G3/G4) [7]: 0/0/0
- Hand and Foot, treatment-related, patients (G2/G3/G4) [7]: 0/0/0
- Infection, treatment-related, patients (G2/G3/G4) [7]: 0/0/0
- Mucositis, treatment-related, patients (G2/G3/G4) [7]: 0/0/0
- Nausea, treatment-related, patients (G2/G3/G4) [7]: 0/0/0
- Neutropenia, treatment-related, patients (G2/G3/G4) [7]: 0/1/0
- Thrombocytopenia, treatment-related, patients (G2/G3/G4) [7]: 0/0/0
- Vomiting, treatment-related, patients (G2/G3/G4) [7]: 1/0/0
- Weight Loss, treatment-related, patients (G2/G3/G4) [7]: 1/0/0
- Anemia, treatment-related, patients (G2/G3/G4) [8]: 0/0/0
- Anorexia, treatment-related, patients (G2/G3/G4) [8]: 2/0/0
- DVT/PE, treatment-related, patients (G2/G3/G4) [8]: 0/0/0
- Dehydration, treatment-related, patients (G2/G3/G4) [8]: 0/0/0
- Diarrhea, treatment-related, patients (G2/G3/G4) [8]: 0/1/0
- Fatigue, treatment-related, patients (G2/G3/G4) [8]: 3/0/0
- GI bleed, treatment-related, patients (G2/G3/G4) [8]: 0/0/0
- Hand and Foot, treatment-related, patients (G2/G3/G4) [8]: 0/0/0
- Infection, treatment-related, patients (G2/G3/G4) [8]: 0/0/0
- Mucositis, treatment-related, patients (G2/G3/G4) [8]: 0/0/0
- Nausea, treatment-related, patients (G2/G3/G4) [8]: 2/0/0
- Neutropenia, treatment-related, patients (G2/G3/G4) [8]: 0/0/0
- Thrombocytopenia, treatment-related, patients (G2/G3/G4) [8]: 0/0/0
- Vomiting, treatment-related, patients (G2/G3/G4) [8]: 0/0/0
- Weight Loss, treatment-related, patients (G2/G3/G4) [8]: 0/0/0
- Anemia, treatment-related, patients (G2/G3/G4) [9]: 2/1/0
- DVT/PE, treatment-related, patients (G2/G3/G4) [9]: 0/1/0
- Dehydration, treatment-related, patients (G2/G3/G4) [9]: 2/1/0
- Diarrhea, treatment-related, patients (G2/G3/G4) [9]: 3/2/0
- Fatigue, treatment-related, patients (G2/G3/G4) [9]: 6/0/0
- GI bleed, treatment-related, patients (G2/G3/G4) [9]: 0/0/0
- Hand and Foot, treatment-related, patients (G2/G3/G4) [9]: 0/0/0
- Infection, treatment-related, patients (G2/G3/G4) [9]: 0/2/0
- Mucositis, treatment-related, patients (G2/G3/G4) [9]: 1/1/0
- Neutropenia, treatment-related, patients (G2/G3/G4) [9]: 1/0/0
- Thrombocytopenia, treatment-related, patients (G2/G3/G4) [9]: 1/0/0
- Vomiting, treatment-related, patients (G2/G3/G4) [9]: 3/3/0
- Weight Loss, treatment-related, patients (G2/G3/G4) [9]: 0/0/0
- Patients with DLT (DL6 1,700 mg once daily × 3 + sLV5FU2, six patients): None
- Anemia, treatment-related, patients (G2/G3/G4) [10]: 0/2/0
- Anorexia, treatment-related, patients (G2/G3/G4) [10]: 1/0/0
- DVT/PE, treatment-related, patients (G2/G3/G4) [10]: 0/0/0
- Dehydration, treatment-related, patients (G2/G3/G4) [10]: 1/0/0
- Diarrhea, treatment-related, patients (G2/G3/G4) [10]: 0/0/0
- GI bleed, treatment-related, patients (G2/G3/G4) [10]: 0/1/0
- Infection, treatment-related, patients (G2/G3/G4) [10]: 0/0/0
- Mucositis, treatment-related, patients (G2/G3/G4) [10]: 0/0/0
- Nausea, treatment-related, patients (G2/G3/G4) [10]: 1/0/0
- Neutropenia, treatment-related, patients (G2/G3/G4) [10]: 1/0/0
- Thrombocytopenia, treatment-related, patients (G2/G3/G4) [10]: 0/1/0
- Vomiting, treatment-related, patients (G2/G3/G4) [10]: 0/0/0
- Weight Loss, treatment-related, patients (G2/G3/G4) [10]: 0/0/0
- Anemia, treatment-related, patients (G2/G3/G4) [11]: 0/2/0
- Anorexia, treatment-related, patients (G2/G3/G4) [11]: 2/0/0
- DVT/PE, treatment-related, patients (G2/G3/G4) [11]: 0/0/0
- Dehydration, treatment-related, patients (G2/G3/G4) [11]: 1/1/0
- Diarrhea, treatment-related, patients (G2/G3/G4) [11]: 0/0/0
- Fatigue, treatment-related, patients (G2/G3/G4) [11]: 0/2/0
- GI bleed, treatment-related, patients (G2/G3/G4) [11]: 0/1/0
- Hand and Foot, treatment-related, patients (G2/G3/G4) [11]: 0/1/0
- Infection, treatment-related, patients (G2/G3/G4) [11]: 0/0/0
- Mucositis, treatment-related, patients (G2/G3/G4) [11]: 0/0/0
- Nausea, treatment-related, patients (G2/G3/G4) [11]: 2/0/0
- Neutropenia, treatment-related, patients (G2/G3/G4) [11]: 1/0/0
- Thrombocytopenia, treatment-related, patients (G2/G3/G4) [11]: 0/1/0
- Vomiting, treatment-related, patients (G2/G3/G4) [11]: 0/0/0
- Weight Loss, treatment-related, patients (G2/G3/G4) [11]: 0/0/0
- DLT (once-daily dose levels 1 through 6, three patients each): without any DLT
- MTD of vorinostat, once-daily schedule (orally once daily × 3 days every 2 weeks, in combination with sLV5FU2): 1,700 mg
- MTD of vorinostat, twice-daily schedule (orally twice daily × 3 days every 2 weeks, in combination with sLV5FU2): 600 mg
